Source: US5641804A, “Fungicidal compound comprising a cyclic polylactone” (Novo Nordisk A/S, priority 1992, dated 1997)
Values after ≈ are worked out from the molar mass of the structure shown.

Experiments:
[1] = test system: Phoma lingam; assay: Agar well inhibition zone, Phoma lingam (Pl); type: cell-based; settings: Plenodomus lingam, 72 h, 15 μl per well, 3 days at 25° C., read-out: inhibition zone P1
Experimental: Phoma lingam (Pl) canker and dry rot
(§1) Each of the above mentioned 9 pathogens were separately innoculated into 100 ml of potato dextrose (PD) bouillon and shaken at 200 rpm at 25° C. for 7 days. The mycelium was harvested and homogenized for about 10 seconds in a Warring blender and 1-5 ml of the blended mycelium was transferred to petri dishes with a diameter of 14 cm. […] 20 ml of potato dextrose agar (PDA) having a temperature of 45° C. were poured into each of the petri dishes and thorougly mixed with the blended mycelium present therein. When the agar had solidified, wells of a diameter of 4 mm were punched in the agar, and 15 μl of test solutions containing varicus concentrations of compound Ia, Ib and IIa dissolved in ethanol was applied to each well. The plates were incubated for three days at 25° C. and the inhibition zones measured (in mm). […]

[2] = test system: Phoma betae; assay: Agar well inhibition zone, Phoma betae (Pb); type: cell-based; settings: Neocamarosporium betae, 72 h, 15 μl per well, 3 days at 25° C.
Experimental: Phoma betae (Pb) seedling black rot, black leg
as §1

[3] = test system: Botrytis cinerea; assay: Agar well inhibition zone, Botrytis cinerea, mycelium plates (Bc1); type: cell-based; design: key to inhibition zone Bc1: clear; diffuse; very diffuse; +: very weak; settings: 15 μl per well, 3 days at 25° C.
Experimental: (§2) Botrytis cinerea (Bc) grey mould
as §1

[4] = test system: Pyrenophora teres; assay: Agar well inhibition zone, Pyrenophora teres (Pt); type: cell-based; design: key to inhibition zone Pt: clear; diffuse; very diffuse; +: very weak; settings: 15 μl per well, 3 days at 25° C.
Experimental: Pyrenophora teres (Pt) net blotch disease
as §1

[5] = test system: Sclerotinia sclerotiorum; assay: Agar well inhibition zone, Sclerotinia sclerotiorum (Ss); type: cell-based; settings: Sclerotinia sclerotiorum, 72 h, 15 μl per well, 3 days at 25° C.
Experimental: Sclerotinia sclerotiorum (Ss) white mould disease, stem rot
as §1

[6] = test system: Ascochyta pisi; assay: Agar well inhibition zone, Ascochyta pisi (Ap); type: cell-based; settings: Ascochyta pisi, 72 h, 15 μl per well, 3 days at 25° C.
Experimental: Ascochyta pisi (Ap) leaf, stem and pod rot
as §1

[7] = test system: plant pathogenic fungi; assay: In vitro fungicidal activity spectrum over the pathogens tested; type: cell-based
Experimental: The following pathogens were used:
(§3) Each of the above mentioned 9 pathogens were separately innoculated into 100 ml of potato dextrose (PD) bouillon and shaken at 200 rpm at 25° C. for 7 days. The mycelium was harvested and homogenized for about 10 seconds in a Warring blender and 1-5 ml of the blended mycelium was transferred to petri dishes with a diameter of 14 cm. […] 20 ml of potato dextrose agar (PDA) having a temperature of 45° C. were poured into each of the petri dishes and thorougly mixed with the blended mycelium present therein. When the agar had solidified, wells of a diameter of 4 mm were punched in the agar, and 15 μl of test solutions containing varicus concentrations of compound Ia, Ib and IIa dissolved in ethanol was applied to each well. The plates were incubated for three days at 25° C. and the inhibition zones measured (in mm).
(§4) The experiments were repeated and in the second run, Bc plates were made from Bc spores (the plates were termed Bc2) as such plates may result in a more uniform growth.

[8] = test system: mouse peritoneal macrophage; assay: Mouse peritoneal macrophage assay, chemiluminescence (phagocytosis); type: cell-based
[9] = test system: mouse peritoneal macrophage; assay: Mouse peritoneal macrophage assay, cellular ATP (viability); type: cell-based
[10] = test system: Botrytis cinerea; assay: Agar well inhibition zone, Botrytis cinerea, plates made from spores (Bc2); type: cell-based
Experimental: as §2, §3, §4

[11] = test system: Botrytis cinerea; assay: Fungicidal activity in vivo against Botrytis cinerea on sprayed plants; settings: spray to run off, assessed after 6 days
Experimental: Activity of the compounds Ia and Ib against Botrytis cinerea Host: Lycopersicon esculentum (tomato, var. First in Field) […] plants (5 weeks old) were sprayed to run off with liquid solutions using a handhold sprayer (Bink Bullows 900). The solution (70% EtOH) had different concentrations of the compounds Ia and Ib. The plants were kept 24 hours in a green house to dry before they were inoculated with a spore suspension containing 1×10^5 spores/ml in 25% grape juice. The inoculation was carried out with a handhold atomizer (Wagner, Pico Bel). The plants were then incubated (16 hours light (1000 lux) and 8 hours dark) at 15°-20° C. in clear polyethylene bags to raise the relative humidity to 95-100%. After 6 days the assessment was done.

[12] = test system: Alternaria alternata; assay: Agar well inhibition zone, Alternaria alternata (Aa); type: cell-based; settings: Alternaria alternata, 72 h, 15 μl per well, 3 days at 25° C.
Experimental: Alternaria alternata (Aa) black mould coverings, leaf spot
as §3, §4

[13] = test system: Monilinia fructigena; assay: Agar well inhibition zone, Monilinia fructigena (Mf); type: cell-based; settings: Monilinia fructigena, 72 h, 15 μl per well, 3 days at 25° C.
Experimental: Monilinia fructigena (Mf) brown rot, fruit rot
as §1

Work on `C[C@@H]1Cc2cc(O)cc(O)c2C(=O)O[C@H](C)CC(=O)O[C@H](CO)CC(=O)O[C@H](C)Cc2cc(O)cc(O)c2C(=O)O[C@H](C)CC(=O)O1` [Compound Ia] yielded a zone of inhibition at 10 µg/mL ([1]; 0.01 mg/ml) of 0 mm, a zone of inhibition at 50 µg/mL ([1]; 0.05 mg/ml) of 18 mm and a zone of inhibition at 500 µg/mL ([1]; 0.5 mg/ml) of 42 mm. It also gave a zone of inhibition at 1000 µg/mL ([1]; 1.0 mg/ml) of 49 mm, a zone of inhibition at 10 µg/mL ([2]; 0.01 mg/ml) of 0 mm and a zone of inhibition at 50 µg/mL ([2]; 0.05 mg/ml) of 0 mm. The zone of inhibition at 500 µg/mL ([2]; 0.5 mg/ml) was 0 mm, the zone of inhibition at 1000 µg/mL ([2]; 1.0 mg/ml) was 0 mm and the “inhibition zone Bc1” value ([3]; 0.05 mg/ml) was “+”. The “inhibition zone Bc1” value ([3]; 0.5 mg/ml) was “+”, the “inhibition zone Bc1” value ([3]; 1.0 mg/ml) was “+” and the zone of inhibition at 10 µg/mL ([3]; Botrytis cinerea, 72 h, 0.01 mg/ml) was 0 mm. The “inhibition zone Pt” value ([4]; 0.05 mg/ml) was “+”, the zone of inhibition at 10 µg/mL ([4]; Pyrenophora teres, 72 h, 0.01 mg/ml) was 0 mm and the zone of inhibition at 500 µg/mL ([4]; Pyrenophora teres, 72 h, 0.5 mg/ml) was 35 mm. The zone of inhibition at 1000 µg/mL ([4]; Pyrenophora teres, 72 h, 1.0 mg/ml) was 40 mm, the zone of inhibition at 10 µg/mL ([5]; 0.01 mg/ml) was 0 mm and the zone of inhibition at 50 µg/mL ([5]; 0.05 mg/ml) was 24 mm. It also gave a zone of inhibition at 500 µg/mL ([5]; 0.5 mg/ml) of 42 mm, a zone of inhibition at 1000 µg/mL ([5]; 1.0 mg/ml) of 50 mm and a zone of inhibition at 10 µg/mL ([6]; 0.01 mg/ml) of 0 mm. It also gave a zone of inhibition at 50 µg/mL ([6]; 0.05 mg/ml) of 0 mm, a zone of inhibition at 500 µg/mL ([6]; 0.5 mg/ml) of 0 mm and a zone of inhibition at 1000 µg/mL ([6]; 1.0 mg/ml) of 0 mm. The activity spectrum ([7]; all pathogens tested, Table 2) was “more effective than the compound of formula IIa”, the “number of pathogens against which compound was active” value ([7]; with respect to Bc only for the plate containing spores) was 5 pathogens and the IC50 [8] was 2 µg/mL (≈ 3.02 µM). The IC50 [9] was 2.5 µg/mL (≈ 3.77 µM), the “appearance of Bc zones” value ([10]; Bc plates) was “very diffuse” and the “time of incubation after which Bc zones could be seen” value ([10]; Bc plates) was at least 3 days. For the same compound, the zone of inhibition at 50 µg/mL ([10]; Botrytis cinerea, 72 h, 0.05 mg/ml, 15 μl per well, 3 days at 25° C., plates from spores) was 12 mm, the zone of inhibition at 500 µg/mL ([10]; Botrytis cinerea, 72 h, 0.5 mg/ml, 15 μl per well, 3 days at 25° C., plates from spores) was 48 mm and the zone of inhibition at 1000 µg/mL ([10]; Botrytis cinerea, 72 h, 1.0 mg/ml, 15 μl per well, 3 days at 25° C., plates from spores) was 56 mm. The protection ([11]; 37 ppm) was “approx. 10%”, the protection ([11]; 375 ppm) was “approx. 60%” and the protection ([11]; 1000 ppm) was “approx. 60%”. It also gave a zone of inhibition at 10 µg/mL ([12]; 0.01 mg/ml) of 0 mm, a zone of inhibition at 50 µg/mL ([12]; 0.05 mg/ml) of 0 mm and a zone of inhibition at 500 µg/mL ([12]; 0.5 mg/ml) of 0 mm. The zone of inhibition at 1000 µg/mL ([12]; 1.0 mg/ml) was 0 mm, the zone of inhibition at 10 µg/mL ([13]; 0.01 mg/ml) was 20 mm and the zone of inhibition at 50 µg/mL ([13]; 0.05 mg/ml) was 34 mm. For the same compound, the zone of inhibition at 500 µg/mL ([13]; 0.5 mg/ml) was 45 mm and the zone of inhibition at 1000 µg/mL ([13]; 1.0 mg/ml) was 50 mm.
